Source: patent US20220348572A1, “BRIDGED HETEROCYCLYL-SUBSTITUTED PYRIMIDINE COMPOUND, PREPARATION METHOD THEREFOR, AND PHARMACEUTICAL USE THEREOF” (The National Institutes of Pharmaceutical R&D Co., Ltd., priority 2019, published 2022)

Columns and labels:
TYK2 kinase = biological target: T1, TYK2 kinase (Homo sapiens, UniProt P29597); experiment: In vitro inhibitory activity on Tyk2 kinase (ADP-Glo Kinase Assay); format: biochemical; settings: TYK2 kinase 4 nM, 1 mM ATP
T1 sequence (P29597 897-1187 limits assumed): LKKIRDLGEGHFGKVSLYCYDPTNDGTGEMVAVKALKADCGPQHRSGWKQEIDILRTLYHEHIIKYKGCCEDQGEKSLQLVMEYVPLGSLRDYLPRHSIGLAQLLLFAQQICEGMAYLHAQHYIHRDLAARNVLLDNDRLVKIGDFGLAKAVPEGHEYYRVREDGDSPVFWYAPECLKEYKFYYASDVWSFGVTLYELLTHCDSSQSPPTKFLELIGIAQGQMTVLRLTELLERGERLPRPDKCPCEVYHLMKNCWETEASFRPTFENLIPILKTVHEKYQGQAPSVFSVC
Procedure: Test Example 2: Determination of In Vitro Inhibitory Activity of the Compounds of the Present Invention on Tyk2 Kinase Experimental materials: TYK2 (Invitrogen, PV4790), ATP (Promega, V915B), ADP-Glo Kinase Assay (Promega, V9101), IRS1 (Signalchem, 140-58-1000). Sample preparation: The compounds of the present invention and the control product were dissolved in DMSO solvent respectively to formulate into 10 mM initial liquid. The maximum concentration of the compound was 10 μM, 3-fold dilution, 10 concentration gradients, and duplicate wells for each concentration gradient. Experimental process: 0.1 μL of the compound to be tested was transferred into a 384 reaction plate (PE, 6007290) via Echo and centrifuged at 1000 rpm/min for 1 min. 5 μL TYK2 kinase (final concentration of 4 nM) was transferred into the 384 reaction plate, which was then centrifuged at 1000 rpm/min for 1 min, and incubated at 25° C. for 15 min. 5 μL substrate mixture (1 mM ATP, IRS1 0.05 mg/ml, kinase buffer solution) was transferred into the 384 reaction plate, which was then centrifuged at 1000 rpm/min for 1 min, and incubated at 25° C. for 60 min. 10 μL ADP-Glo was transferred into the 384 reaction plate, which was then centrifuged at 1000 rpm/min for 1 min, and incubated at 25° C. for 40 min. 20 μL test solution was transferred into the 384 reaction plate, which was centrifuged at 1000 rpm/min for 1 min and incubated at 25° C. for 40 min. RLU (Relative luminescence unit) signal was read by using an Envision multifunctional plate reader. The signal intensity was used to characterize the degree of the kinase activity. […] IC50 value of 0-100 nM is shown as A, IC50 value of 100-300 nM is shown as B, IC50 value of 300-1000 nM is shown as C, and IC50 value which is greater than 1000 nM is shown as D. NT means not tested.

JAK1 kinase = biological target: T2, JAK1 kinase (Homo sapiens, UniProt P23458); experiment: In vitro inhibitory activity on JAK1 kinase (ADP-Glo Kinase Assay); format: biochemical; settings: JAK1 kinase 4 nM, 1 mM ATP
T2 construct: purchased Invitrogen PV4744
Procedure, shortened: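 JAK1 (4 nM final) preincubated with compound 15 min at 25° C., then substrate mix (1 mM ATP, IRS1 0.05 mg/ml) added for 60 min at 25° C. ADP-Glo luminescence read-out; top concentration 10 μM, 3-fold, 10 points, duplicates; IC50 reported in ranged classes.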

[1] = test system: IFN-2α-stimulated TYK2/JAK1-mediated pathway (pSTAT3); experiment: Inhibition of STAT3 signaling pathway of human whole blood (IFN-2α-induced pSTAT3, flow cytometry); format: cell-based
Procedure: Test Example 3: Inhibition Effect of the Compounds of the Present Invention on STAT3 Signaling Pathway of Human Whole Blood
Sample preparation: The compounds of the present invention and the control were dissolved in DMSO solvent respectively to formulate into 10 mM initial liquid. The maximum concentration of the compound was 10 μM, 3-fold dilution, 10 concentration gradients, and duplicate wells for each concentration gradient.
Experimental process: 20 μL of the compound of the present invention was added to a flow cytometer tube (BD, 352052) containing 180 μL anticoagulant sodium heparin. 20 μL PBS was added to the control. The sample was incubated at 37° C. for 30 min. 2 μL stimulating factor was added and then incubated at 37° C. for 20 min. 1 mL erythrocyte lysate was rapidly added, and the sample was repeatedly inverted 5-10 times or vortexed and then incubated at 37° C. for 10 min. The sample was centrifuged at 600 g for 6-8 min. The supernatant was discarded. The precipitate was vortexed until suspending. The cells were washed with 3 mL PBS and centrifuged at 600 g for 6-8 min. The supernatant was discarded. The precipitate was vortexed until suspending. 1 mL of membrane breaking solution was added, and the system was mixed gently, incubated on ice for 30 min, and centrifuged at 600 g for 6-8 min. The supernatant was discarded. The precipitate was vortexed until suspending. The cells were washed. 3 mL PBS was added. The system was centrifuged at 600 g for 6-8 min. The supernatant was discarded. The precipitate was vortexed untile suspending. The process was repeated twice. 100 μL PBS was added to each staining tube. IFN-2a was added for stimulation, and CD3 and pSTAT3 antibodies […] were added. The system was mixed well, protected from light and incubated at room temperature for 60 min. The cells were washed. 3 mL PBS was added. The system was centrifuged at 600 g for 6-8 min. The supernatant was discarded. The precipitate was vortexed until suspending. The precipitate was suspended in 150 μL in the dark for the flow cytometry analysis. The IC50 (half inhibitory concentration) of the compounds was obtained by using the following non-linear fitting equation:
Y=Bottom+(Top−Bottom)/(1+10^((Log IC50−X)*HillSlope));
X: Log value of the concentration of the compound;
Bottom: The minimum value, Top: The maximum value, HillSlope: Slope
The inhibition effect of by the compounds of the present invention on the IFN-2α-stimulated TYK2/JAK1-mediated pathway is shown in Table 3. IC50 value of 0-100 nM is shown as A, IC50 value of 100-300 nM is shown as B, IC50 value of 300-1000 nM is shown as C, IC50 value which is greater than 1000 nM is shown as D. NT means not tested.

T2 sequence (P23458 866-1154 limits assumed): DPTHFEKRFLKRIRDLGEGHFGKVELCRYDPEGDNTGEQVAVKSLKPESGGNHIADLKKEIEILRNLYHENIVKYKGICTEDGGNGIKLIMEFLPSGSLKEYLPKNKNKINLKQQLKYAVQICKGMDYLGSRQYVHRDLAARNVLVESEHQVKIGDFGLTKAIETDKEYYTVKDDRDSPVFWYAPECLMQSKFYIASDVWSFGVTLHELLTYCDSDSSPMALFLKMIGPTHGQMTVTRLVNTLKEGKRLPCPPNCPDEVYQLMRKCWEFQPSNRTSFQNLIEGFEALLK

IC50 (TYK2 kinase)	IC50 (JAK1 kinase)	Compound	IC50 [1]
	> 1000 nM	Cc1cnc(Nc2cn(C)nc2C)nc1C1=C[C@@H]2CC[C@H](C1)N2C(=O)NCC(F)(F)F [Compound 26-a, (1S,5R)-3-(2-((1,3-dimethyl-1H-pyrazol-4-yl)amino)-5-methylpyrimidin-4-yl)-N-(2,2,2-trifluoroethyl)-8-azabicyclo[3.2.1]oct-2-ene-8-carboxamide]	
	> 1000 nM	Cn1cc(Nc2nccc(C3=CC4CCC(C3)N4C(=O)C34CC(C3)C4)n2)cn1 (centres unmarked) [Compound 72, bicyclo[1.1.1]pentan-1-yl(3-(2-((1-methyl-1H-pyrazol-4-yl)amino)pyrimidin-4-yl)-8-azabicyclo[3.2.1]oct-2-en-8-yl)methanone]	
	> 1000 nM	C#CCC(=O)N1C2C=C(c3ccnc(Nc4cnn(C)c4)n3)CC1CC2 (centres unmarked) [Compound 53, 1-(3-(2-((1-methyl-1H-pyrazol-4-yl)amino)pyrimidin-4-yl)-8-azabicyclo[3.2.1]oct-2-en-8-yl)but-3-yn-1-one]	
	100 to 300 nM	Cn1cc(Nc2nccc(C3=CC4CCC(C3)N4C(=O)NCCOC(F)(F)F)n2)cn1 (centres unmarked) [Compound 58, 3-(2-((1-methyl-1H-pyrazol-4-yl)amino)pyrimidin-4-yl)-N-(2-(trifluoromethoxy)ethyl)-8-azabicyclo[3.2.1]oct-2-ene-8-carboxamide]	
	300 to 1000 nM	O=C([C@@H]1CC1(F)F)N1C2C=C(c3ccnc(Nc4cnn(C5COC5)c4)n3)CC1CC2 (stereo partly drawn) [Compound 37, ((S)-2,2-difluorocyclopropyl)(3-(2-((1-(oxetan-3-yl)-1H-pyrazol-4-yl)amino)pyrimidin-4-yl)-8-azabicyclo[3.2.1]oct-2-en-8-yl)methanone]	
	> 1000 nM	Cn1cc(Nc2nccc(C3=CC4CCC(C3)N4C(=O)C3CCOCC3)n2)cn1 (centres unmarked) [Compound 78]	
	100 to 300 nM	CCn1cc(Nc2nccc(C3=CC4CCC(C3)N4C(=O)[C@@H]3CC3(F)F)n2)cn1 (stereo partly drawn) [Compound 45, ((S)-2,2-Difluorocyclopropyl)(3-(2-((1-ethyl-1H-pyrazol-4-yl)amino)pyrimidin-4-yl)-8-azabicyclo[3.2.1]oct-2-en-8-yl)methanone]	
	100 to 300 nM	Cc1cnc(Nc2cnn(C)c2)nc1C1=C[C@@H]2CC[C@H](C1)N2C(=O)[C@@H]1CC1(F)F [Compound 22-a, ((S)-2,2-difluorocyclopropyl)((1S,5R)-3-(5-methyl-2-((1-methyl-1H-pyrazol-4-yl)amino)pyrimidin-4-yl)-8-azabicyclo[3.2.1]oct-2-en-8-yl)methanone]	
	> 1000 nM	Cn1cc(Nc2nccc(C3=CC4CCC(C3)N4C(=O)C34CC(C#N)(C3)C4)n2)cn1 (centres unmarked) [Compound 73, 3-(3-(2-((1-methyl-1H-pyrazol-4-yl)amino)pyrimidin-4-yl)-8-azabicyclo[3.2.1]oct-2-ene-8-formyl)bicyclo[1.1.1]pentane-1-carbonitrile]	

Continued, molecule first:

Compound	IC50 (TYK2 kinase)	IC50 (JAK1 kinase)	IC50 [1]
Cn1cc(Nc2nccc(C3=CC4CCC(C3)N4C(=O)NCC#N)n2)cn1 (centres unmarked) [Compound 2, N-(cyanomethyl)-3-(2-((1-methyl-1H-pyrazol-4-yl)amino)pyrimidin-4-yl)-8-azabicyclo[3.2.1]oct-2-ene-8-carboxamide]	< 100 nM	< 100 nM	
Cn1cc(Nc2nccc(C3=CC4CCC(C3)N4C(=O)C3CC3F)n2)cn1 (centres unmarked) [Compound 51, (2-fluorocyclopropyl)(3-(2-((1-methyl-1H-pyrazol-4-yl)amino)pyrimidin-4-yl)-8-azabicyclo[3.2.1]oct-2-en-8-yl)methanone]		< 100 nM	< 100 nM
Cn1cc(Nc2ncc(F)c(C3=CC4CCC(C3)N4C(=O)NCC#N)n2)cn1 (centres unmarked) [Compound 11, N-(cyanomethyl)-3-(5-fluoro-2-((1-methyl-1H-pyrazol-4-yl)amino)pyrimidin-4-yl)-8-azabicyclo[3.2.1]oct-2-ene-8-carboxamide]	< 100 nM	< 100 nM	
Cn1cc(Nc2nccc(C3=CC4CCC(C3)N4C(=O)NC3(C#N)CC3)n2)cn1 (centres unmarked) [Compound 54, N-(1-cyanocyclopropyl)-3-(2-((1-methyl-1H-pyrazol-4-yl)amino)pyrimidin-4-yl)-8-azabicyclo[3.2.1]oct-2-ene-8-carboxamide]		> 1000 nM	< 100 nM
Cn1cc(Nc2ncc(F)c(C3=CC4CCC(C3)N4C(=O)NCC(F)(F)F)n2)cn1 (centres unmarked) [Compound 12, 3-(5-fluoro-2-((1-methyl-1H-pyrazol-4-yl)amino)pyrimidin-4-yl)-N-(2,2,2-trifluoroethyl)-8-azabicyclo[3.2.1]oct-2-ene-8-carboxamide]	< 100 nM	< 100 nM	
Cn1cc(Nc2nccc(C3=CC4CCC(C3)N4C(=O)c3cc(C#N)cs3)n2)cn1 (centres unmarked) [Compound 18, 5-(3-(2-((1-methyl-1H-pyrazol-4-yl)amino)pyrimidin-4-yl)-8-azabicyclo[3.2.1]oct-2-ene-8-formyl)thiophene-3-carbonitrile]		> 1000 nM	
Cn1cc(Nc2nccc(C3=CC4CCC(C3)N4C(=O)c3ccc(C(F)(F)F)cn3)n2)cn1 (centres unmarked) [Compound 17, (3-(2-((1-methyl-1H-pyrazol-4-yl)amino)pyrimidin-4-yl)-8-azabicyclo[3.2.1]oct-2-en-8-yl)(5-(trifluoromethyl)pyridin-2-yl)methanone]		> 1000 nM	
Cc1cnc(Nc2cnn(C)c2)nc1C1=C[C@H]2CC[C@@H](C1)N2C(=O)NCC(F)(F)F [Compound 19-b, (1R,5S)-3-(5-methyl-2-((1-methyl-1H-pyrazol-4-yl)amino)pyrimidin-4-yl)-N-(2,2,2-trifluoroethyl)-8-azabicyclo[3.2.1]oct-2-ene-8-carboxamide]		< 100 nM	
Cn1cc(Nc2nccc(C3=C[C@H]4CC[C@@H](C3)N4C(=O)NCC(F)(F)F)n2)cn1 [Compound 3-b, (1R,5S)-3-(2-((1-methyl-1H-pyrazol-4-yl)amino)pyrimidin-4-yl)-N-(2,2,2-trifluoroethyl)-8-azabicyclo[3.2.1]oct-2-ene-8-carboxamide]		< 100 nM	
